In patent US10160767B2 (Institute of Pharmacology and Toxicology Academy of …, priority 2014, dated 2018):
pIC50: −log10 of the molar value.

Tests used:
[1] = cited from earlier work
[2] = Toxicity on rat primary hepatocytes (ATP detection); assay type: cell-based; details: SD, ATP detection reagent
Method: Experimental method: Liver lobes of SD rat were placed in sterilized plate, added with a suitable amount of liver cell cleaning solution (precooled at 4° C.), the liver was shredded and fibrous connective tissues were removed to form a liver cell suspension, screened with 200 mesh screen and placed in 50 ml centrifuge tube, centrifuged at 500 rpm for 1-2 min; the supernatant was removed, the precipitate was added with 20-30 ml of RPMI […] (precooled at 4° C.) and washed 3 times; isovolumetric liver cell suspension was taken and suspended in Percoll separating solution I, mixed by turning upside down, centrifuged at 4° C. and 800 rpm for 10 min, the supernatant was discarded, the liver cells were washed with PBS once (800 rpm, 5 min). The liver cell precipitate was added into liver cell culture fluid, resuspended and diluted to 10 ml, and a suitable amount thereof was taken for counting and survival rate was determined by using 0.4% trypan blue. The liver cells with survival rate of 90% or more were inoculated in a density of 2×10^3 on 96-well plate, 100 μl of RPMI 1640 culture medium was added to each well, culture was performed at 37° C., 5% CO2 for 24 h. The compounds were diluted with DMSO to desired concentrations and added to each well in an amount of 1 μl (final compound concentrations were usually initiated from 1000 μM, 10× gradient dilution, 6 gradients), and blank control was added with 1 μl of DMSO.
After the cells were cultured at 37° C., 5% CO2 for 24 h, 100 μl of ATP detection reagent was added, incubated under shock for 15 min. fluorescence values of wells were read by ELIASA. Cell survival rates for each example compounds were calculated, and then GIs values (concentrations of added compounds at which growth of 50% cells was inhibited) were calculated.

tumor cell A549 = assay: Tumor cell inhibition, Cell Titer-Glo cell viability; assay type: cell-based; details: Homo sapiens, A549 cells, 72 h
Method: The activities of example compounds to tumor cell A549 were evaluated.
(§1) Experimental materials: DMEM high-glucose cell culture media (Hyclone Company), fetal calf serum (FBS) (Gibco Company), penicillin and streptomycin were purchased from North China Pharmaceutical Co., Ltd, phosphate buffer saline (PBS) was purchased from Gibco Company, Cell Titer-Glo® cell viability detection reagent was purchased from Promega Company, pancreatin and dimethylsulfoxide (DMSO) were products of Sigma Company. A549 cell line (human lung adenocarcinoma cell line) was purchased from ATCC.
(§2) The cells were inoculated on a 96-well plate with white wall and penetrative bottom (Costar) in amount of 5000 cells per well, cultured at condition of 37° C., 5% CO2 for 24 h. The compounds to be tested were dissolved with DMSO and diluted to 100 mM, to obtain mother liquids of the compounds.
(§3) DMEM culture solution containing 2% FBS was used to diluted the compounds, in which concentration gradients were 3, and concentration range was 100 μM to 3 nM. The compounds in various dilution degrees were added to the cultured cells on the 96-well plate, 100 μl per well. Culture was performed at 37° C., CO2 for 72 h, supernatant was discarded, and cell viability detection test was performed.
(§4) AfterCell Titer-Glo® reaction buffer solution was mixed with isometric substrate, the mixture was added to 96-well plate, 100 μl per well. Cell lysis was induced by horizontally shaking for 4 min. Reaction signal was stabilized by balancing at room temperature for 15 min. Chemiluminescence units in each well of the 96-well plate were detected by using chemiluminescence detector.
(§5) Inhibition rates at different dilution degrees of each compound were calculated according to chemiluminescence value of each well, and Origin 8.0 software was used for S-type curve fitting of each compound, and for calculating EC50 value.

[3] = tested on: multi-drug resistant tumor cell line MES-SA; assay: Inhibition of drug-resistant tumor cell line, Cell Titer-Glo cell viability; therapeutic index against MRC5 cells; assay type: cell-based; details: Homo sapiens, 72 h
Method: The activity of example compounds to multi-drug resistant tumor cell line MES-SA was evaluated.
as §1, with “MES-SA” for “A549”, “uterine sarcoma” for “lung adenocarcinoma”, “ATCC. MRC5 cell (human embryonic lung fibroblast) was purchased from ATCC.” for “ATCC.”
as §2
as §3, with “0.046 μM.” for “3 nM.”
as §4
as §5, with “value. The ratio of EC50 value of compound for MRC5 cell to EC50 value of compound for MES-SA cell was used as therapeutic index for the compound.” for “value.”

mTORC1 = mTORC1 (Homo sapiens, UniProt P42345); assay: Inhibition of mTORC1 in A549 cells: phosphorylation of Thr389 of S6K1 by Western blot; assay type: cell-based; details: compound 20 μM with insulin 167 nM, 2 h, semi-quantitative
From the text: Molecular mechanism of action of the example compounds in tumor cell A549.
Experimental materials: DMEM high-glucose cell culture media (Hyclone Company), fetal calf serum (FBS) (Gibco Company), penicillin and streptomycin were purchased from North China Pharmaceutical Co., Ltd, phosphate buffer saline (PBS) was purchased from Gibco Company, pancreatic enzyme and dimethylsulfoxide (DMSO) were products of Sigma Company. A549 cell line (human lung adenocarcinoma cell line) was purchased from ATCC. Mouse anti-human p-p70S6K(T389) monoclonal antibody was purchased from Cell Signaling Technology Company, mouse anti-human p70S6K monoclonal antibody was purchased from Cell Signaling Technology Company, mouse anti-human p-AKT (S473) monoclonal antibody was purchased from Cell Signaling Technology Company, mouse anti-human AKTmonoclonal antibody was purchased from Cell Signaling Technology Company. Horseradish peroxidase-labeled goat anti-mouse, goat anti-mouse monoclonal antibodies were purchased from Cell Signaling Technology Company. […]

[4] = tested on: metastatic soft-tissue or bone sarcomas; details: phase-III; cited from earlier work
T cell proliferation = details: read-out: Median inhibitory concentration (IC50), T cell proliferation; cited from earlier work
[5] = tested on: renal cell carcinoma (RCC); details: early RCC patients; cited from earlier work

Compound | GI50 at 24 h [2] [µM] | pIC50 (tumor cell A549) | pIC50 [3] | melting point [°C] | also measured
CO[C@H]1C[C@@H]2CC[C@@H](C)[C@@](O)(O2)C(=O)C(=O)N2CCCC[C@H]2C(=O)O[C@H]([C@H](C)C[C@@H]2CC[C@@H](OCCO)[C@H](OC)C2)CC(=O)[C@H](C)/C=C(\C)[C@@H](O)[C@@H](OC)C(=O)[C@H](C)C[C@H](C)/C=C/C=C/C=C/1C [Everolimus, 42-O-(2-hydroxyethyl)-rapamycin] |  |  |  |  | Half-life ([1]; in human body): 16 to 19 h; Oral bioavailability ([1]; oral): 15%-30%
CO[C@H]1C[C@@H]2CC[C@@H](C)[C@@](O)(O2)C(=O)C(=O)N2CCCC[C@H]2C(=O)O[C@H]([C@H](C)C[C@@H]2CC[C@@H](OC(=O)C[n+]3cccc(C)c3)[C@H](OC)C2)CC(=O)[C@H](C)/C=C(\C)[C@@H](O)[C@@H](OC)C(=O)[C@H](C)C[C@H](C)/C=C/C=C/C=C/1C.[Br-] [Example 11, 42-O-carbonylmethyl-(3-methyl-pyridine bromide salt-1-yl)-rapamycin] | 71.8 | 4.28 | > 7.34 | 138 to 140 | 
CO[C@H]1C[C@@H]2CC[C@@H](C)[C@@](O)(O2)C(=O)C(=O)N2CCCC[C@H]2C(=O)O[C@H]([C@H](C)C[C@@H]2CC[C@@H](OC(=O)C[n+]3ccc(C)cc3)[C@H](OC)C2)CC(=O)[C@H](C)/C=C(\C)[C@@H](O)[C@@H](OC)C(=O)[C@H](C)C[C@H](C)/C=C/C=C/C=C/1C.[Br-] [Example 13, 42-O-carbonylmethyl-(4-methyl-pyridine bromide salt-1-yl)-rapamycin] | 44.9 | 4.35 | > 7.34 | 157 to 160 | 
CO[C@H]1C[C@@H]2CC[C@@H](C)[C@@](O)(O2)C(=O)C(=O)N2CCCC[C@H]2C(=O)O[C@H]([C@H](C)C[C@@H]2CC[C@@H](O)[C@H](OC)C2)CC(=O)[C@H](C)/C=C(\C)[C@@H](OC(=O)C[n+]2ccc(C)cc2)[C@@H](OC)C(=O)[C@H](C)C[C@H](C)/C=C/C=C/C=C/1C.[Br-] [Example 17, 31-O-carbonylmethyl-(4-methyl-pyridine bromide salt-1-yl)-rapamycin] | 54.3 | 4.39 | > 7.34 | 145 to 148 | 
CO[C@H]1C[C@@H]2CC[C@@H](C)[C@@](O)(O2)C(=O)C(=O)N2CCCC[C@H]2C(=O)O[C@H]([C@H](C)C[C@@H]2CC[C@@H](O)[C@H](OC)C2)CC(=O)[C@H](C)/C=C(\C)[C@@H](O)[C@@H](OC)C(=O)[C@H](C)C[C@H](C)/C=C/C=C/C=C/1C [Rapamycin, reference compound] | 24.8 | 4.31 | > 7.34 |  | Inhibition of mTORC1 (phosphorylation of Thr389 of S6K1) (mTORC1): could only inhibit mTORC1
CO[C@H]1C[C@@H]2CC[C@@H](C)[C@@](O)(O2)C(=O)C(=O)N2CCCC[C@H]2C(=O)O[C@H]([C@H](C)C[C@@H]2CC[C@@H](OP(C)(C)=O)[C@H](OC)C2)CC(=O)[C@H](C)/C=C(\C)[C@@H](O)[C@@H](OC)C(=O)[C@H](C)C[C@H](C)/C=C/C=C/C=C/1C [Ridaforolimus] |  |  |  |  | Mortality risk reduction in comparison with placebo group [4]: 28%
CO[C@H]1C[C@@H]2CC[C@@H](C)[C@@](O)(O2)C(=O)C(=O)N2CCCC[C@H]2C(=O)O[C@H]([C@H](C)C[C@@H]2CC[C@@H](OC(=O)C(C)(CO)CO)[C@H](OC)C2)CC(=O)[C@H](C)/C=C(\C)[C@@H](O)[C@@H](OC)C(=O)[C@H](C)C[C@H](C)/C=C/C=C/C=C/1C [Temsirolimus] |  |  |  |  | pIC50 (T cell proliferation): 9.10; Extension of median survival time [5]: 3-6 months
